Test results: patent publication US20130045500A1, “CELL EVALUATION METHOD” (NATIONAL CANCER CENTER, priority 2011, published 2013)

Tested on: human breast-cancer-derived cell line T47D
Experiment: Survival rate by ATP assay (CellTiter-Glo) and number of spheroids on NanoCulture plate
Assay type: cell-based
Conditions: trastuzumab 10 μg/mL, paclitaxel 6.0 μg/mL, 7 days after medicine was added, expected effects confirmed in b72 (FIG. 8, FIG. 9)
Protocol: A human breast-cancer-derived cell line T47D was suspended in a culture medium (NCM-M made by SCIVAX Co., Ltd.), and seeded on a NanoCulture (registered mark) plate (made by SCIVAX Co., Ltd., 96-well plate, material of concavo-convex structure surface: cyclic-olefin polymer (COP), planar shape of concavo-convex structure: regular hexagon, width between unit structures (line width): 700 nm, minimum internal diameter of unit structure: 3 μm, and depth: 1 μm) at 1×10^4 cells/well, and incubated at 37° C. and 5% CO2.
The survival rate of the cell on the tenth day (the seventh day after medicines were added) was evaluated based on the assay of the ATP in the cell using CellTiter-Glo Luminescent Cell Viability Assay (Promega KK.) and calculated as a relative value, and the results are shown in FIG. 8.

Question: With `CC(=O)O[C@H]1C(=O)[C@@]2(C)[C@H]([C@H](OC(=O)c3ccccc3)[C@]3(O)C[C@H](OC(=O)[C@H](O)[C@@H](NC(=O)c4ccccc4)c4ccccc4)C(C)=C1C3(C)C)[C@]1(OC(C)=O)CO[C@@H]1C[C@@H]2O` [paclitaxel] as the molecule, how does the “antitumor effect (ATP amount in the cell and number of spheroids)” value read?
Answer: shows an antitumor effect
